In US20180119156A1, “[…] GENE EXPRESSION” (priority 2015, published 2018):

What was measured:
[1] = test system: E. coli DH10B-T7His-Theo4; type: cell-based, Escherichia coli
Protocol: The performance of the cascade was measured using GFPuv expression (FIG. 12). Specifically, the theophylline dependency of the cascade at 0.8 mg/L rhamnose was measured. […] Additionally, expression of GFPuv over a wide range of rhamnose and theophylline concentrations was determined.
E. coli DH10B-T7His-Theo4 was grown overnight at 37° C. in LB medium containing kanamycin (50 mg/L). A 96 well 2 ml culture plate (Greiner) was filled with a concentrate of theophylline and L-rhamnose. […] Culture plates were incubated at 37° C. overnight under continuous shaking. The bacteria were centrifuged for 10 minutes at 4700 rpm in a Sorval Legend centrifuge. The supernatant was cleared and the cell pellet was resuspended in 500 μL 50 mM Tris-HCl pH 7.5. After resuspension, the plates were incubated at 37° C. for 1 hour to allow maturation of the GFPuv. 100 μL of suspension was pipetted into a 98 well black plate with clear bottom (Perkin Elmer) and measured with a Synergy MX plate reader. The cell density was measured by scattering at 600 nm and the fluorescence was measured at an excitation wavelength of 385 nm with a width of 20 nm and an emission wavelength of 508 nm with 20 nm width with a gain of 50. The background fluorescence and background scattering were subtracted and the fluorescence was divided by the scattering at 600 nm. The background fluorescence of bacteria without either GFPuv or T7His polymerase was negligible, but the fluorescence caused by other components than GFPuv in the bacteria was still subtracted.
The theophylline dependency of the cascade in response to differing concentrations of rhamnose was measured. E. coli DH10B-T7His-Theo4 diluted from an overnight culture were grown overnight in a 2 mL culture plate containing a variable amount of L-rhamnose and theophylline. The medium was cleared and the bacteria were resuspended in 50 mM Tris-HCl pH 7.5. The fluorescence was measured at an excitation wavelength of 385 nm and an emission wavelength of 508 nm. The cell density was measured by scattering at 600 nm.

[2] = test system: thyA-deficient E. coli DH10B strain
Protocol: A comparison of a single intron construct with a construct of the present invention featuring a tandem self-splicing intron was made (FIG. 9). Growth (OD600) was plotted against time (minutes) in the presence (1 mM) and absence (0 mM) of theophylline for the construct designed by Thompson et al. (Thompson et al. 2002 BMC Biotechnol. 2: 21) utilising one theophylline-dependent intron in thyA, in a thyA-deficient E. coli DH10B strain (FIG. 9A). […] Growth was measured in the same way for a construct containing an E. coli thyA gene interrupted by two theophylline-dependent introns, which was transformed into a thyA-deficient E. coli DH10B strain. The overnight growth was plotted against the theophylline concentration in the medium (FIG. 9B).

[3] = test system: thyA knockout strain of E. coli; conditions: single theophylline-dependent intron, background subtracted; cited from earlier work

Structure (SMILES): C[C@H](O)[C@H](O)[C@@H](O)[C@@H](O)C=O [rhamnose, L-rhamnose]
- background expression, % of the maximum expression ([1]; fully induced with rhamnose, theophylline absent, one intron cascade): about 7.5%

Structure (SMILES): Cn1c(=O)c2[nH]cnc2n(C)c1=O [theophylline]
- concentration above which theophylline became slightly toxic ([2]; overnight growth, E. coli DH10B thyA-deficient): Above 1 mM
- Kd ([2]; read-out: apparent kd value, Michaelis-Menten-like profile of overnight growth vs theophylline concentration, two introns in thyA): 100 to 200 µM
- fold-change in GFPuv fluorescence caused by theophylline ([1]; at any L-rhamnose concentration): around 15 times
- signal of fully induced system relative to strong TacI promoter (pSC034f) ([1]; fully induced with rhamnose and theophylline): 5-6 times
- theophylline-induced growth, % of the parental intron [3]: approximately 40%
